Data reported in patent publication US20190119298A1, “FUSED 3-PHENYLTETRAMIC ACID DERIVATIVES HAVING HERBICIDAL ACTION” (Bayer CropScience Aktiengesellschaft, priority 2016, published 2019).

What was measured:
Format in all cases: in vivo
Lolium multiflorum [1] = assay: Post-emergence herbicidal effect; conditions: one-leaf stage, 320 g/ha, assessed visually after about 3 weeks, 100% = plants have died
Method: (§1) LOLMU: Lolium multiflorum Seeds of monocotyledonous and dicotyledonous weed and crop plants are laid out in sandy loam soil in wood-fibre pots, covered with soil and cultivated in a greenhouse under good growth conditions. 2 to 3 weeks after sowing, the test plants are treated at the one-leaf stage. The compounds of the invention, formulated in the form of wettable powders (WP) or as emulsion concentrates (EC), are then sprayed onto the green parts of the plants as aqueous suspension or emulsion at a water application rate equating to 600 to 800 L/ha with addition of 0.2% wetting agent. After the test plants have been left to stand in the greenhouse under optimal growth conditions for about 3 weeks, the action of the preparations is assessed visually in comparison to untreated controls (herbicidal action in percent (%): 100% activity=the plants have died, 0% activity=like control plants).

Avena fatua [2] = assay: Post-emergence herbicidal effect; conditions: one-leaf stage, 320 g/ha, assessed visually after about 3 weeks, 100% = plants have died
In short: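 Greenhouse-grown plants in sandy loam treated at one-leaf stage, 2–3 weeks after sowing, by spraying WP or EC formulations as aqueous suspension/emulsion at 600–800 L/ha water with 0.2% wetting agent. After about 3 weeks, effect scored visually versus untreated controls (0% = like control, 100% = plants dead).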

Avena fatua [3] = assay: Pre-emergence herbicidal effect; conditions: 320 g/ha, scored visually after 3 weeks vs untreated controls, 100% = plants have died
In short: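 Weed and crop seeds sown in sandy loam were treated pre-emergence on the soil surface with WP or EC formulations at a water rate of 600 to 800 L/ha plus 0.2% wetting agent. Plants grown in a greenhouse; damage scored visually after 3 weeks as percent activity relative to untreated controls (100% = dead).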

Echinochloa crus-galli [4] = assay: Pre-emergence herbicidal effect; conditions: 320 g/ha, scored visually after 3 weeks vs untreated controls, 100% = plants have died
In short: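 Wettable powder or emulsion concentrate sprayed onto soil covering freshly sown seeds in sandy loam, 600 to 800 L/ha water with 0.2% wetting agent. Pots kept in greenhouse. Damage scored visually after 3 weeks against untreated controls, 0-100% activity.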

Lolium multiflorum [5] = assay: Pre-emergence herbicidal effect; conditions: 320 g/ha, scored visually after 3 weeks vs untreated controls, 100% = plants have died
In short: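 Seeds sown in sandy loam and covered; compounds as WP or EC applied to the soil surface pre-emergence at 600 to 800 L/ha water with 0.2% wetting agent. Greenhouse growth for 3 weeks, then damage scored visually versus untreated controls (100% = plants dead, 0% = like control).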

Alopecurus myosuroides [6] = assay: Post-emergence herbicidal effect; conditions: one-leaf stage, 320 g/ha, assessed visually after about 3 weeks, 100% = plants have died
Method: as §1, with “ALOMY: Alopecurus myosuroides” for “LOLMU: Lolium multiflorum”

Setaria viridis [7] = assay: Pre-emergence herbicidal effect; conditions: 320 g/ha, scored visually after 3 weeks vs untreated controls, 100% = plants have died
In short: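 Pre-emergence: WP or EC formulations sprayed onto the soil surface over sown seeds in sandy loam at 600–800 L/ha water with 0.2% wetting agent. Plants kept in a greenhouse; damage scored visually after 3 weeks as % activity versus untreated controls (100% = dead).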

Setaria viridis [8] = assay: Post-emergence herbicidal effect; conditions: one-leaf stage, 320 g/ha, assessed visually after about 3 weeks, 100% = plants have died
In short: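 Greenhouse plants grown in sandy loam were sprayed at the one-leaf stage, 2-3 weeks after sowing. Compounds were applied as WP or EC formulations in 600-800 L/ha water plus 0.2% wetting agent. About 3 weeks later, damage was scored visually against untreated controls (0% = like control, 100% = dead plants).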

Alopecurus myosuroides [9] = assay: Pre-emergence herbicidal effect; conditions: 320 g/ha, scored visually after 3 weeks vs untreated controls, 100% = plants have died
In short: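 Seeds sown in sandy loam and covered; WP- or EC-formulated compounds sprayed onto covering soil at 600–800 L/ha water with 0.2% wetting agent. Greenhouse-grown; damage scored visually after 3 weeks versus untreated controls (100% = plants died, 0% = like control).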

Echinochloa crus-galli [10] = assay: Post-emergence herbicidal effect; conditions: one-leaf stage, 320 g/ha, assessed visually after about 3 weeks, 100% = plants have died
In short: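 Greenhouse plants in sandy loam were sprayed at the one-leaf stage with WP or EC formulations at 600 to 800 L/ha water with 0.2% wetting agent. After about 3 weeks, damage was scored visually in % against untreated controls (100% = dead).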

Row | SMILES | Post-emergence effectiveness LOLMU (herbicidal action in percent) (Lolium multiflorum [1]) [%] | Post-emergence effectiveness AVEFA (herbicidal action in percent) (Avena fatua [2]) [%] | Pre-emergence action AVEFA (herbicidal activity in percent) (Avena fatua [3]) [%] | Pre-emergence action ECHCG (herbicidal activity in percent) (Echinochloa crus-galli [4]) [%] | Pre-emergence action LOLMU (herbicidal activity in percent) (Lolium multiflorum [5]) [%] | Post-emergence effectiveness ALOMY (herbicidal action in percent) (Alopecurus myosuroides [6]) [%] | Pre-emergence action SETVI (herbicidal activity in percent) (Setaria viridis [7]) [%] | Post-emergence effectiveness SETVI (herbicidal action in percent) (Setaria viridis [8]) [%] | Pre-emergence action ALOMY (herbicidal activity in percent) (Alopecurus myosuroides [9]) [%] | Post-emergence effectiveness ECHCG (herbicidal action in percent) (Echinochloa crus-galli [10]) [%]
1 | CCc1cc(C)cc(C)c1C1=C(OC(=O)OC)C2CCOCCN2C1=O (centres unmarked) [Ib-1-6] | 100 | 100 | 100 | 100 | 100 | 100 | 100 | 100 | 100 | 100
2 | CCOC(=O)OC1=C(c2c(C)cc(C)cc2CC)C(=O)N2CCOCCC12 (centres unmarked) [Ib-1-7] | 100 | 100 | 100 | 100 | 100 | 100 | 100 | 100 | 100 | 100
3 | CCc1cc(C)cc(C)c1C1=C(OC(=O)C(C)(C)C)C2CCOCCN2C1=O (centres unmarked) [Ib-1-8] | 100 | 100 | 100 | 100 | 100 | 100 | 100 | 100 | 100 | 100
4 | CCc1cc(C)cc(C)c1C1=C(OC(C)=O)C2CCOCCN2C1=O (centres unmarked) [Ib-1-9] | 100 | 100 | 100 | 100 | 100 | 100 | 100 | 100 | 100 | 100
5 | CCOC(=O)OC1=C(c2c(C)cc(C)cc2C)C(=O)N2CCOCCC12 (centres unmarked) [Ib-1-10] | 100 | 100 | 90 | 100 | 100 | 100 | 100 | 100 | 80 | 100
6 | Cc1cc(C)c(C2=C(OC(=O)C(C)(C)C)C3CCOCCN3C2=O)c(C)c1 (centres unmarked) [Ib-1-11] | 100 | 100 | 90 | 100 | 100 | 100 | 100 | 100 | 90 | 100
7 | CC(=O)OC1=C(c2c(C)cc(C)cc2C)C(=O)N2CCOCCC12 (centres unmarked) [Ib-1-12] | 100 | 100 | 90 | 100 | 100 | 100 | 100 | 100 | 100 | 100
8 | CCOC(=O)OC1=C(c2c(C)cccc2CC)C(=O)N2CCOCCC12 (centres unmarked) [Ib-1-13] | 100 | 90 | 90 | 100 | 100 | 100 | 100 | 100 | 80 | 100
9 | CCc1cccc(C)c1C1=C(OC(=O)C(C)(C)C)C2CCOCCN2C1=O (centres unmarked) [Ib-1-14] | 100 | 100 | 90 | 100 | 100 | 90 | 100 | 100 | 80 | 100
10 | CCc1cc(Cl)cc(OC)c1C1=C(OC(=O)OC)C2CCOCCN2C1=O (centres unmarked) [Ib-1-16] | 100 | 100 | 100 | 100 | 100 | 100 | 100 | 100 | 100 | 100
11 | CCc1cc(Cl)cc(OC)c1C1=C(OC(=O)C(C)(C)C)C2CCOCCN2C1=O (centres unmarked) [Ib-1-18] | 100 | 100 | 100 | 100 | 100 | 100 | 100 | 100 | 100 | 100
